Source: patent US20110251428A1 (priority 2006, published 2011)
“Also recorded” adds a separate entry of the source.

Tests used:
yeast [PSI^+] prion [1] = type: cell-based
[URE3] prion = type: cell-based
yeast [PSI^+] prion [2] = settings: cited from earlier work

Clc1cccc(Cl)c1N=C1NCCN1 [Clonidine]
anti-prion activity (data not shown) (yeast [PSI^+] prion [1]): did not exhibit any anti-prion activity

CC(=O)O.N=C(N)N/N=C/c1c(Cl)cccc1Cl [Guanabenz acetate]
activity against yeast [PSI+] prion (halo of red colonies) (yeast [PSI^+] prion [1]): strongly active; also recorded: very active | activity against [URE3] prion ([URE3] prion): also active; also recorded: also very active

N=C(N)N/N=C/c1c(Cl)ccc(Cl)c1Cl [PSI210]
activity against yeast [PSI+] prion (halo of red colonies) (yeast [PSI^+] prion [1]): strongest activity; also recorded: more potent than Guanabenz itself

CN(C)CCCN1c2ccccc2Sc2ccc(Cl)cc21 [chlorpromazine]
activity in the yeast-based method (earlier study) (yeast [PSI^+] prion [2]): active

CCN(CC)CCCC(C)Nc1c2ccc(Cl)cc2nc2ccc(OC)cc12 (stereo not drawn) [quinacrine]
activity in the yeast-based method (earlier study) (yeast [PSI^+] prion [2]): active
